Assay results published in US4874856A, “3-(substituted)propenyl-7-(aminothiazolylacetamido) ceph-3-em-4-carboxylic acids and esters thereof” (Bristol-Myers Company, priority 1987, dated 1989).
Converted amounts (≈) assume the structure as drawn. Like-named read-outs stand apart in the source and are kept apart here.

Assays:
Type in all cases: cell-based
[1] = system: Cephalothin(CET)sensitive E. coli (2 strains), K. pneumoniae (1) an P. mirabilis (2); assay: In vitro MIC, two-fold serial agar dilution in Mueller-Hinton agar, GnIa strains; settings: 5 strains, read-out: Geometric mean of MIC, GnIa
Procedure: (§1) The in vitro antibacterial activity of the parent cephalosporanic acids of Formula I wherein R^4 is hydrogen is shown in Table 1 in terms of geometric mean of the Minimum Inhibitory Concentrations (MIC's) which were determined by the two-fold serial agar dilution method in Mueller-Hinton agar against 25 strains of test organisms in five groups.
GnIa: Cephalothin(CET)sensitive E. coli (2 strains), K. pneumoniae (1) an […]

[2] = system: M. morcanii (1), E. cloacae (2) and S. marcescens (2); assay: In vitro MIC, two-fold serial agar dilution in Mueller-Hinton agar, GnII strains; settings: Enterobacter cloacae, read-out: Geometric mean of MIC, GnII
Procedure: as §1
GnII: M. morcanii (1), E. cloacae (2) and S. marcescens (2)

[3] = system: Proteus vulgaris; assay: In vitro MIC, Mueller-Hinton agar, inoculum 10^6 cells/ml
Excerpt: (§2) Table 6 is a comparison of the in vitro antibacterial activities of Compound 29 and the vinyl homolog thereof FK-482 against clinically important pathogens. Thirty-seven organisms were more than 4-fold more susceptible to Compound 29 than to FK-482. FK-482 has the following formula and is described by Takaya, et al. in U.S. Pat. No. 4,559,334 patented Dec. 17, 1985 (filed Oct. 20, 1983). [drawing 14]
(§3) *; Geometric mean of MIC (μg/ml)
(§4) Mueller-Hinton agar Inoculum size; 10^6 cells/ml

[4] = system: Serratia marcescens; assay: as above
Excerpt: as §2, §3, §4

[5] = system: Enterobacter aerogenes; assay: as above; settings: Klebsiella aerogenes
Excerpt: as §2, §3, §4

[6] = system: Enterobacter cloacae; assay: as above
Excerpt: as §2, §3, §4

[7] = system: Serratia species; assay: as above
Excerpt: as §2, §3, §4

[8] = system: Morganella morganii; assay: as above
Excerpt: as §2, §3, §4

[9] = system: Providencia rettgeri; assay: as above
Excerpt: as §2, §3, §4

[10] = system: Citrobacter freundii; assay: as above
Excerpt: as §2, §3, §4

[11] = system: Proteus mirabilis; assay: as above
Excerpt: as §2, §3, §4

[12] = system: clinically important pathogens; assay: Comparison of in vitro antibacterial activities of Compound 29 and FK-482 (Table 6); settings: Thirty-seven organisms
Excerpt: as §2, §4

[13] = system: CETresistant E. coli (3) and K. pneumoniae (2); assay: In vitro MIC, two-fold serial agar dilution in Mueller-Hinton agar, GnIb strains; settings: Escherichia coli, 5 strains, read-out: Geometric mean of MIC, GnIb
Procedure: as §1
GnIb: CETresistant E. coli (3) and K. pneumoniae (2)

C/C=C\C1=C(C(=O)O)N2C(=O)[C@@H](NC(=O)/C(=N\O)c3csc(N)n3)[C@H]2SC1 [Compound 29, 7β-[(Z)-2-(2-aminothiazol-4-yl)-2-(hydroxyimino)acetamido]-3-[(Z)-prop-1-en-1-yl]-3-cephem-4-carboxylic acid]
MIC [1]: 0.066 µg/mL (≈ 0.161 µM) | MIC [2]: 6.3 µg/mL (≈ 15.4 µM) | MIC ([3]; (GM) of the Proteus vulgaris strains, read-out: Geometric mean of MIC): 1 µg/mL (≈ 2.44 µM) | MIC ([3]; strain A 9436, read-out: MIC): 0.1 µg/mL (≈ 0.244 µM) | MIC ([3]; strain A 9526, read-out: MIC): 3.1 µg/mL (≈ 7.57 µM) | MIC ([3]; strain A 9699, read-out: MIC): 1.6 µg/mL (≈ 3.91 µM) | MIC ([3]; strain AKH-26, read-out: MIC): > 50 µg/mL | MIC ([3]; strain HX-19 MS-1, read-out: MIC): 0.1 µg/mL (≈ 0.244 µM) | MIC ([3]; strain OX-19 MS-1, read-out: MIC): 0.2 µg/mL (≈ 0.488 µM) | MIC ([4]; (GM) of the Serratia marcescens strains, read-out: Geometric mean of MIC): 13 µg/mL (≈ 31.7 µM) | MIC ([4]; strain A20019, read-out: MIC): 1.6 µg/mL (≈ 3.91 µM) | MIC ([4]; strain A20222, read-out: MIC): 3.1 µg/mL (≈ 7.57 µM) | MIC ([4]; strain A20333, read-out: MIC): > 50 µg/mL | MIC ([4]; strain A20334, read-out: MIC): > 50 µg/mL | MIC ([4]; strain A20335, read-out: MIC): 1.6 µg/mL (≈ 3.91 µM) | MIC ([4]; strain A20336, read-out: MIC): 3.1 µg/mL (≈ 7.57 µM) | MIC ([4]; strain A20442, read-out: MIC): 3.1 µg/mL (≈ 7.57 µM) | MIC ([4]; strain A20459, read-out: MIC): > 50 µg/mL | MIC ([4]; strain A20460, read-out: MIC): 12.5 µg/mL (≈ 30.5 µM) | MIC ([4]; strain A20461, read-out: MIC): > 50 µg/mL | MIC ([5]; (GM) of the Enterobacter aerogenes strains, read-out: Geometric mean of MIC): 4.9 µg/mL (≈ 12 µM) | MIC ([5]; strain A20940, read-out: MIC): > 50 µg/mL | MIC ([5]; strain A20941, read-out: MIC): 1.6 µg/mL (≈ 3.91 µM) | MIC ([5]; strain A20943, read-out: MIC): 0.8 µg/mL (≈ 1.95 µM) | MIC ([5]; strain A20958, read-out: MIC): 6.3 µg/mL (≈ 15.4 µM) | MIC ([5]; strain A20961, read-out: MIC): 3.1 µg/mL (≈ 7.57 µM) | MIC ([5]; strain A20966, read-out: MIC): 6.3 µg/mL (≈ 15.4 µM) | MIC ([5]; strain A20971, read-out: MIC): 1.6 µg/mL (≈ 3.91 µM) | MIC ([5]; strain A20985, read-out: MIC): > 50 µg/mL | MIC ([5]; strain A20994, read-out: MIC): 6.3 µg/mL (≈ 15.4 µM) | MIC ([5]; strain A20996, read-out: MIC): 0.8 µg/mL (≈ 1.95 µM) | MIC ([5]; strain A21013, read-out: MIC): 3.1 µg/mL (≈ 7.57 µM) | MIC ([5]; strain A21036, read-out: MIC): > 50 µg/mL | MIC ([5]; strain A21037, read-out: MIC): 0.4 µg/mL (≈ 0.977 µM) | MIC ([5]; strain A21038, read-out: MIC): 0.8 µg/mL (≈ 1.95 µM) | MIC ([5]; strain A21039, read-out: MIC): 6.3 µg/mL (≈ 15.4 µM) | MIC ([5]; strain A21043, read-out: MIC): 12.5 µg/mL (≈ 30.5 µM) | MIC ([5]; strain A21044, read-out: MIC): 25 µg/mL (≈ 61.1 µM) | MIC ([5]; strain A21118, read-out: MIC): 50 µg/mL (≈ 122 µM) | MIC ([5]; strain A21120, read-out: MIC): 6.3 µg/mL (≈ 15.4 µM) | MIC ([5]; strain A21130-1, read-out: MIC): 6.3 µg/mL (≈ 15.4 µM) | MIC ([5]; strain A21131, read-out: MIC): 0.8 µg/mL (≈ 1.95 µM) | MIC ([5]; strain A21152, read-out: MIC): 0.8 µg/mL (≈ 1.95 µM) | MIC ([5]; strain A21155, read-out: MIC): 3.1 µg/mL (≈ 7.57 µM) | MIC ([5]; strain A21158, read-out: MIC): 6.3 µg/mL (≈ 15.4 µM) | MIC ([5]; strain A21503, read-out: MIC): 3.1 µg/mL (≈ 7.57 µM) | MIC ([6]; (GM) of the Enterobacter cloacae strains, read-out: Geometric mean of MIC): 17 µg/mL (≈ 41.5 µM) | MIC ([6]; strain A 9655, read-out: MIC): 50 µg/mL (≈ 122 µM) | MIC ([6]; strain A 9659, read-out: MIC): > 50 µg/mL | MIC ([6]; strain A20344, read-out: MIC): > 50 µg/mL | MIC ([6]; strain A20364, read-out: MIC): 3.1 µg/mL (≈ 7.57 µM) | MIC ([6]; strain A20464, read-out: MIC): 3.1 µg/mL (≈ 7.57 µM) | MIC ([6]; strain A20650, read-out: MIC): 0.8 µg/mL (≈ 1.95 µM) | MIC ([6]; strain A22551, read-out: MIC): > 50 µg/mL | MIC ([7]; (GM) of the Serratia species strains, read-out: Geometric mean of MIC): 44 µg/mL (≈ 107 µM) | MIC ([7]; strain 6-330, read-out: MIC): 3.1 µg/mL (≈ 7.57 µM) | MIC ([7]; strain 6-427, read-out: MIC): 3.1 µg/mL (≈ 7.57 µM) | MIC ([7]; strain 6-920, read-out: MIC): > 50 µg/mL | MIC ([7]; strain 7-255, read-out: MIC): > 50 µg/mL | MIC ([7]; strain 7-454, read-out: MIC): > 50 µg/mL | MIC ([7]; strain 7-2322, read-out: MIC): > 50 µg/mL | MIC ([7]; strain 8-185, read-out: MIC): > 50 µg/mL | MIC ([7]; strain 8-513, read-out: MIC): 25 µg/mL (≈ 61.1 µM) | MIC ([7]; strain 8-785, read-out: MIC): > 50 µg/mL | MIC ([7]; strain 8-1537, read-out: MIC): 25 µg/mL (≈ 61.1 µM) | MIC ([7]; strain 9-50, read-out: MIC): > 50 µg/mL | MIC ([7]; strain 9-690, read-out: MIC): > 50 µg/mL | MIC ([8]; (GM) of the Morganella morganii strains, read-out: Geometric mean of MIC): 6.3 µg/mL (≈ 15.4 µM) | MIC ([8]; IFO3843, strain IFO 3843 MS-1, read-out: MIC): 1.6 µg/mL (≈ 3.91 µM) | MIC ([8]; strain A 9636, read-out: MIC): > 50 µg/mL | MIC ([8]; strain A20455, read-out: MIC): 1.6 µg/mL (≈ 3.91 µM) | MIC ([9]; (GM) of the Providencia rettgeri strains, read-out: Geometric mean of MIC): 0.015 µg/mL (≈ 0.0366 µM) | MIC ([9]; IFO3850, strain IFO 3850 MS-1, read-out: MIC): < 0.0063 µg/mL | MIC ([9]; strain A 9637, read-out: MIC): < 0.0063 µg/mL | MIC ([9]; strain A15167 (first line), read-out: MIC): < 0.0063 µg/mL | MIC ([9]; strain A15167 (second line), read-out: MIC): 0.013 µg/mL (≈ 0.0317 µM) | MIC ([9]; strain A20645, read-out: MIC): 0.4 µg/mL (≈ 0.977 µM) | MIC ([9]; strain A20915, read-out: MIC): 0.8 µg/mL (≈ 1.95 µM) | MIC ([9]; strain A20920, read-out: MIC): < 0.0063 µg/mL | MIC ([9]; strain A20921, read-out: MIC): < 0.0063 µg/mL | MIC ([9]; strain A21205, read-out: MIC): 0.025 µg/mL (≈ 0.0611 µM) | MIC ([9]; strain A21270, read-out: MIC): 0.025 µg/mL (≈ 0.0611 µM) | MIC ([10]; (GM) of the Citrobacter freundii strains, read-out: Geometric mean of MIC): 1.7 µg/mL (≈ 4.15 µM) | MIC ([10]; strain A21312, read-out: MIC): > 50 µg/mL | MIC ([10]; strain A22140, read-out: MIC): 1.6 µg/mL (≈ 3.91 µM) | MIC ([10]; strain A22141, read-out: MIC): 1.6 µg/mL (≈ 3.91 µM) | MIC ([10]; strain A22142, read-out: MIC): 0.8 µg/mL (≈ 1.95 µM) | MIC ([10]; strain A22160, read-out: MIC): 0.8 µg/mL (≈ 1.95 µM) | MIC ([10]; strain A22161, read-out: MIC): 0.8 µg/mL (≈ 1.95 µM) | MIC ([10]; strain A22166, read-out: MIC): 0.8 µg/mL (≈ 1.95 µM) | MIC ([10]; strain A22175, read-out: MIC): 0.8 µg/mL (≈ 1.95 µM) | MIC ([10]; strain A22176, read-out: MIC): 0.8 µg/mL (≈ 1.95 µM) | MIC ([10]; strain A22177, read-out: MIC): 3.1 µg/mL (≈ 7.57 µM) | MIC ([11]; (GM) of the Proteus mirabilis strains, read-out: Geometric mean of MIC): 0.084 µg/mL (≈ 0.205 µM) | MIC ([11]; IFO3849, strain IFO 3849 MS-1, read-out: MIC): 0.1 µg/mL (≈ 0.244 µM) | MIC ([11]; strain A 9554, read-out: MIC): 0.1 µg/mL (≈ 0.244 µM) | MIC ([11]; strain A 9702, read-out: MIC): 0.05 µg/mL (≈ 0.122 µM) | MIC ([11]; strain A 9716, read-out: MIC): 0.1 µg/mL (≈ 0.244 µM) | MIC ([11]; strain A20119, read-out: MIC): 0.05 µg/mL (≈ 0.122 µM) | MIC ([11]; strain A20342, read-out: MIC): 0.1 µg/mL (≈ 0.244 µM) | MIC ([11]; strain A20454, read-out: MIC): 0.1 µg/mL (≈ 0.244 µM) | MIC ([11]; strain A21222, read-out: MIC): 0.1 µg/mL (≈ 0.244 µM) | more susceptible to Compound 29 than to FK-482 [12]: more than 4 fold | MIC [13]: 0.35 µg/mL (≈ 0.855 µM)
